# In the supplement of paper PMC11451515:
# Tested on: SEM cells
# Test: cell viability relative to DMSO control; higher = less cytotoxic
# Conditions: 48 h
# Method in brief: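 NOMO1, SEM and P12-Ichikawa leukemia cells spent at least four passages adapting to each medium before use. They were seeded at 500 cells/well (NOMO1, SEM) or 1000 cells/well (P12-Ichikawa) in 5 μl in 1536-well plates and pin-dosed with library compounds in DMSO at 11 threefold steps from 47 μM down to 0.79 nM. After 48 h at 37°C, CellTiter-Glo One luminescence was read. Viability is reported as a percentage of the DMSO wells on each plate, with cell-free wells as background.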
# [1] = HPLM + 10% dialyzed FBS, 0.000781 µM
# [2] = HPLM + 10% dialyzed FBS, 0.00234 µM
# [3] = HPLM + 10% dialyzed FBS, 0.00702 µM
# [4] = HPLM + 10% dialyzed FBS, 0.0211 µM
# [5] = HPLM + 10% dialyzed FBS, 0.0632 µM
# [6] = HPLM + 10% dialyzed FBS, 0.19 µM
# [7] = HPLM + 10% dialyzed FBS, 0.569 µM
# [8] = HPLM + 10% dialyzed FBS, 1.71 µM
# [9] = HPLM + 10% dialyzed FBS, 5.12 µM
# [10] = HPLM + 10% dialyzed FBS, 15.4 µM
# [11] = HPLM + 10% dialyzed FBS, 46.1 µM
# [12] = RPMI 5 mM glucose + 10% FBS, 0.000781 µM
# [13] = RPMI 5 mM glucose + 10% FBS, 0.00234 µM
# [14] = RPMI 5 mM glucose + 10% FBS, 0.00702 µM
# [15] = RPMI 5 mM glucose + 10% FBS, 0.0211 µM
# [16] = RPMI 5 mM glucose + 10% FBS, 0.0632 µM
# [17] = RPMI 5 mM glucose + 10% FBS, 0.19 µM
# [18] = RPMI 5 mM glucose + 10% FBS, 0.569 µM
# [19] = RPMI 5 mM glucose + 10% FBS, 1.71 µM
# [20] = RPMI 5 mM glucose + 10% FBS, 5.12 µM
# [21] = RPMI 5 mM glucose + 10% FBS, 15.4 µM
# [22] = RPMI 5 mM glucose + 10% FBS, 46.1 µM
# [23] = RPMI 5 mM glucose + 10% dialyzed FBS, 0.000781 µM
# [24] = RPMI 5 mM glucose + 10% dialyzed FBS, 0.00234 µM
# [25] = RPMI 5 mM glucose + 10% dialyzed FBS, 0.00702 µM
# [26] = RPMI 5 mM glucose + 10% dialyzed FBS, 0.0211 µM
# [27] = RPMI 5 mM glucose + 10% dialyzed FBS, 0.0632 µM
# [28] = RPMI 5 mM glucose + 10% dialyzed FBS, 0.19 µM
# [29] = RPMI 5 mM glucose + 10% dialyzed FBS, 0.569 µM
# [30] = RPMI 5 mM glucose + 10% dialyzed FBS, 1.71 µM
# [31] = RPMI 5 mM glucose + 10% dialyzed FBS, 5.12 µM
# [32] = RPMI 5 mM glucose + 10% dialyzed FBS, 15.4 µM
# [33] = RPMI 5 mM glucose + 10% dialyzed FBS, 46.1 µM
Compound,cell viability [1],cell viability [2],cell viability [3],cell viability [4],cell viability [5],cell viability [6],cell viability [7],cell viability [8],cell viability [9],cell viability [10],cell viability [11],cell viability [12],cell viability [13],cell viability [14],cell viability [15],cell viability [16],cell viability [17],cell viability [18],cell viability [19],cell viability [20],cell viability [21],cell viability [22],cell viability [23],cell viability [24],cell viability [25],cell viability [26],cell viability [27],cell viability [28],cell viability [29],cell viability [30],cell viability [31],cell viability [32],cell viability [33]
CCCCOc1ccc(C(=O)Nc2ccc(F)cc2F)cc1,68.1%,88.6%,67.1%,95.1%,86.9%,88.3%,84.6%,30.1%,88.1%,92.5%,83.4%,68.6%,88.8%,65.9%,86.5%,83.4%,92.7%,81.5%,48.3%,88.4%,101%,73.5%,78%,89.7%,70.6%,90.1%,84.7%,85.6%,86.2%,48.1%,88%,90.2%,76.7%
NC12CC3CC(CC(C3)C1)C2,45.1%,106%,70.8%,106%,125%,114%,113%,124%,98.1%,123%,119%,42.3%,102%,70.6%,104%,109%,109%,102%,107%,89%,110%,104%,33.7%,96.5%,71.4%,108%,114%,115%,112%,122%,110%,131%,107%
CN(C(=O)c1ccc(F)cc1C(F)(F)F)C1CCN(c2nnc(-c3ccnn3C)c3ccccc23)CC1,50.4%,67.5%,60.6%,62.4%,79.4%,85.1%,69.4%,78.6%,79%,80.6%,49.2%,69.2%,74.8%,71%,85.5%,83.3%,77.6%,91%,86.2%,74.1%,86.8%,59.8%,56.3%,61.4%,61.9%,70.8%,66.7%,80.4%,65%,86.1%,79.2%,83.3%,41%
CC1(C)OC/2=C(\[C@H](NCC3=CC=CC=C3)[C@@H]1O)C(=O)C4=CC=CC=C4C2=O,103%,95.6%,91%,115%,98.4%,111%,106%,110%,83.6%,41.1%,9.15%,80.9%,71.7%,98.4%,83.9%,94.1%,91.9%,108%,99.7%,54.2%,24.5%,5.4%,96.8%,74.4%,109%,97.7%,94.4%,106%,109%,92.5%,83.4%,48.1%,8.42%
CNC(=O)c1c(F)cccc1Nc1nc(Nc2cc3c(cc2OC)CCN3C(=O)CN(C)C)nc2[nH]ccc12,84.8%,92.2%,94.8%,100%,83.5%,58.3%,40.5%,31.9%,22%,3.15%,1.16%,90.3%,90.5%,83.2%,97.9%,88.7%,51%,34.8%,27.3%,13.5%,1.01%,0.384%,93.6%,96.8%,93.6%,105%,94.7%,58.4%,32.8%,30.2%,13.4%,2.8%,0.739%
CCCCc1oc2ccc(NS(C)(=O)=O)cc2c1C(=O)c1ccc(OCCCN(CCCC)CCCC)cc1,62.8%,66%,80.9%,87.6%,92.6%,86.6%,101%,98.7%,70.2%,78.6%,8.35%,88.9%,87.5%,98.2%,109%,95.6%,92.6%,101%,108%,96.3%,94.1%,14.9%,94.8%,94.1%,98.4%,108%,107%,99.3%,100%,109%,97%,94.7%,6.45%
CN(C)c1ccc(C(=O)NCCCCCCC(=O)NO)cc1,97.1%,94.4%,91.8%,88.1%,97.7%,96.2%,93.9%,34%,3.1%,1.85%,2.9%,91.8%,100%,94.6%,92%,112%,94.8%,76.2%,37.3%,3.1%,1.95%,3.03%,93.2%,111%,105%,96.4%,95%,90.7%,83.5%,31.4%,2.63%,1.52%,3.31%
O=C(NC1CC1)c1cccc(-c2ccc3c(NC(=O)C4CC4)n[nH]c3c2)c1,98.9%,98.1%,107%,96.2%,97.6%,95.1%,97.2%,98.5%,90%,62.8%,18.8%,97.1%,106%,109%,107%,103%,98.4%,103%,113%,89.4%,51.3%,11.1%,103%,108%,104%,104%,116%,115%,102%,104%,86.1%,56.9%,18.2%
O=C1c2cccc(O)c2C(=O)c2c(O)cc(CO)cc21,101%,97.7%,107%,119%,111%,34%,110%,105%,102%,97.4%,109%,105%,103%,99.9%,110%,93%,45%,101%,84.2%,92.3%,103%,103%,102%,97.2%,100%,91.7%,91.2%,45.1%,85.9%,86.4%,94.2%,92.6%,85.3%
CN[C@@H](C)C(=O)N[C@H]1CCCC[C@H]2CC[C@@H](C(=O)N[C@@H](c3ccccc3)c3cn(CCCCc4ccc(CCCCn5cc([C@@H](NC(=O)[C@@H]6CC[C@@H]7CCCC[C@H](NC(=O)[C@H](C)NC)C(=O)N76)c6ccccc6)nn5)cc4)nn3)N2C1=O,73.5%,96.1%,90.5%,100%,90.5%,89.2%,88.1%,91%,92.2%,103%,69.2%,90.3%,97.9%,94.9%,95.6%,83.4%,89.5%,82.2%,87.2%,94.8%,85%,35.3%,95.8%,90.5%,82%,95.2%,99.4%,86.8%,82.3%,95.3%,82.4%,84.4%,54.4%
CCOc1cc2c(c(F)c1OCC)C(=N)N(CC(=O)c1cc(N3CCOCC3)c(OC)c(C(C)(C)C)c1)C2,96.2%,95.6%,95.7%,101%,94%,110%,117%,108%,104%,97.8%,59.8%,110%,98.1%,93.9%,113%,111%,103%,114%,121%,108%,107%,52.5%,83.9%,105%,99.8%,101%,119%,116%,117%,124%,117%,125%,74.4%
Clc1ccc(COC(Cn2ccnc2)c2ccc(Cl)cc2Cl)cc1 (stereo not drawn),72.9%,82.3%,89.9%,97.2%,83.6%,84.7%,80.8%,88.9%,92.5%,87.9%,80.5%,116%,110%,121%,114%,119%,102%,119%,107%,113%,107%,82%,76.8%,78.8%,113%,85%,92.2%,88.7%,111%,94.2%,101%,79.7%,74.5%
CCc1cc(/C(C)=N/OCc2ccc(C3CCCCC3)c(C(F)(F)F)c2)ccc1CN1CC(C(=O)O)C1,104%,117%,112%,109%,104%,115%,120%,117%,99.8%,87.1%,82.9%,92%,108%,109%,109%,105%,109%,106%,99.9%,96.2%,82.2%,70.2%,114%,116%,125%,123%,126%,124%,137%,132%,118%,106%,94%
CC(C)(Cc1ccc2ccccc2c1)NC[C@@H](O)COc1cccc(Cl)c1C#N,128%,121%,125%,121%,124%,123%,119%,120%,108%,96.7%,65.7%,127%,113%,120%,116%,124%,121%,115%,126%,86%,128%,62.8%,–,–,–,–,–,–,–,–,–,–,–
CCCCCCCCCCCCCCCC(=O)OC[C@@H](NC(=O)C(Cl)Cl)[C@H](O)c1ccc([N+](=O)[O-])cc1,90.3%,113%,114%,116%,121%,121%,118%,123%,131%,116%,119%,120%,117%,132%,122%,136%,138%,132%,124%,128%,133%,129%,–,–,–,–,–,–,–,–,–,–,–
